Assay results reported in patent US9518055B2, “Imidazopyridyl compounds as aldosterone synthase inhibitors” (Merck Sharp & Dohme Corp., priority 2011, dated 2016).

Legend:
[1] = target: human CYP11B2 (Homo sapiens (Human), UniProt P19099); test: V79-Human-CYP11B2 cell assay; assay type: cell-based; settings: V79 cells stably expressing human CYP11B2; 125 nM 11-deoxycorticosterone substrate; aldosterone measured by HTRF
Procedure: (§1) Methods for V79-Human-CYP11B2 and V79-Human-CYP11B1 Assays:
(§2) V79 cell lines stably expressing the either the human CYP11B2 or the human CYP11B1 enzyme were generated using a standard transfection protocol. V79 cells were transfected with plasmids pTriEx3-Hygro-hCyp11B2 or pTriEx3-Hygro-hCyp11B1 using Lipofectamine2000 reagent. V79 cells that stably express the human CYP11B2 or human CYP11B1 enzyme were selected for and maintained in DMEM supplemented with 10% FBS and 400 μg/mL hygromycin for ˜2 weeks. Single cell clones were generated by […] in DMEM supplemented with 10% FBS and 400 μg/mL hygromycin until single colonies were obtained. […] For testing of inhibitors, cells were harvested at 80% confluency with 0.5% Trypsan-EDTA, washed once in PBS, and reconstituted in DMEM+0.1% BSA media at a cell concentration of 600,000 cells/mL for the CYP11B2 assay and 280,000 cells/mL for the CYP11B1 assay. 25 μL of cells were added to a 384 well tissue culture treated plate and mixed with 0.3 μL of inhibitor or DMSO (1% final DMSO concentration) for 1 hour at 37° C., 5% CO2. […] The reaction was carried out for 3 hours at 37° C., 5% CO2 and was stopped by harvesting the supernatants. The amount of product in the supernatant (aldosterone for CYP11B2 assay and cortisol for the CYP11B1 assay) was measured using HTRF-based assay kit (Aldosterone HTRF-CisBio#64ALDPEB, Cortisol HTRF-CisBio #63IDC002-CORT). IC50s for the inhibitor were determined by plotting the amount of product formed against the concentration of inhibitor using sigmoidal dose-response curve (variable slope) fit in GraphPad.

[2] = target: human CYP11B1 (Homo sapiens (Human), UniProt P15538); test: V79-Human-CYP11B1 cell assay; assay type: cell-based; settings: for inhibition at 10 µM: starred values of the CYP11B1 column; for IC50: V79 cells stably expressing human CYP11B1, 250 nM 11-deoxycortisol substrate, cortisol measured by HTRF
Procedure: as §1, §2

human CYP11B2, sequence (P19099 25-503): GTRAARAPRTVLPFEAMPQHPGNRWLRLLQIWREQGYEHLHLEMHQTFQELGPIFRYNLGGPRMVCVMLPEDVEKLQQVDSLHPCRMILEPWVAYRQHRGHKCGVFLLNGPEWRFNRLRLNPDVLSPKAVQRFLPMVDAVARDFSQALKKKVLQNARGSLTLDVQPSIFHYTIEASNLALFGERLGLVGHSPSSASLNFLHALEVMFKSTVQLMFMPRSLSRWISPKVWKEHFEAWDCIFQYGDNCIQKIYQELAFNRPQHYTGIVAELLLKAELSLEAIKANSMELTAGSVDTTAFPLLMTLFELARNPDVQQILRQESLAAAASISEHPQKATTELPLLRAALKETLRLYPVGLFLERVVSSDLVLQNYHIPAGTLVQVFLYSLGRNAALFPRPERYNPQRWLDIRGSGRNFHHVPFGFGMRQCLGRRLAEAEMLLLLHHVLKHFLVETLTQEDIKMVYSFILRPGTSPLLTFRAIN
human CYP11B1, sequence (P15538 25-503): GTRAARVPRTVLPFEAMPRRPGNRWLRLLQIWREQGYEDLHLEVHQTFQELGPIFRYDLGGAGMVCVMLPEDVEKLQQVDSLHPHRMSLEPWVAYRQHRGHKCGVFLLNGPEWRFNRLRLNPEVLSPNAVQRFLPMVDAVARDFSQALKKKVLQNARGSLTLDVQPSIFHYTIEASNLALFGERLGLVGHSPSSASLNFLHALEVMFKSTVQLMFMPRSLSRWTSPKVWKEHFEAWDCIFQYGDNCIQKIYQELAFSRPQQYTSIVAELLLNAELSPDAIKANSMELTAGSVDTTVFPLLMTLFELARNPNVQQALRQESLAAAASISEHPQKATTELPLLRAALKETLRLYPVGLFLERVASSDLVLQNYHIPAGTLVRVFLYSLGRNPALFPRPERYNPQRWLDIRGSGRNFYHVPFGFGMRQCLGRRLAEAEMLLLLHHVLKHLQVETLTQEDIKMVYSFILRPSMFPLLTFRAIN

SMILES | IC50 [1] [nM] | inhibition at 10 µM [2] [%] | IC50 [2] [nM]
Cc1ccncc1-c1cn2cc(F)ccc2n1 [Example 6, 6-fluoro-2-(4-methylpyridin-3-yl)imidazo[1,2-a]pyridine] | 22.4 | 63 | 
Cc1cncc(-c2cn3cc(F)ccc3n2)c1 [Example 7, 6-fluoro-2-(5-methylpyridin-3-yl)imidazo[1,2-a]pyridine] | 56.2 | 60 | 
COc1cncc(-c2nc3ccc(F)cn3c2C)c1 [Example 18, 6-fluoro-3-methyl-2-(5-methoxypyridin-3-yl)imidazo[1,2-a]pyridine] | 0.3 |  | 32.4
Cc1cncc(-c2nc3ccc(F)cn3c2C)c1 [Example 19, 6-fluoro-3-methyl-2-(5-methylpyridin-3-yl)imidazo[1,2-a]pyridine] | 0.45 |  | 40.7
Cc1ccncc1-c1nc2ccc(F)cn2c1C [Example 20, 6-fluoro-3-methyl-2-(4-methylpyridin-3-yl)imidazo[1,2-a]pyridine] | 2.2 |  | 135
Cc1c(-c2cncc3ccccc23)nc2ccc(F)cn12 [Example 25] | 0.1 |  | 14.8
Cc1c(-c2cncc(F)c2)nc2cc(F)ccn12 [Example 26, 7-fluoro-2-(5-fluoropyridin-3-yl)-3-methylimidazo[1,2-a]pyridine] | 4.7 |  | 912
